Measured values: patent publication US10093695B2, “Sterol derivative, preparation method therefor and use thereof” (Beijing Peking University WBL Biotech Co., Ltd., priority 2012, dated 2018)

Columns and labels:
[1] = molecular target: T1, HMG-CoA reductase (Rattus norvegicus, UniProt P51639); assay: HMG-CoA reductase inhibitory activity experiment (OD340 decrease, rat liver microsomes); assay type: biochemical; conditions: for Slope: decreasing speed of OD340 within 5 minutes, 37° C., blank control slope 15.6
T1 construct: take out a male rat liver, after washing the male rat liver with a KESD buffer solution; from tissue; host or cells: male rat liver microsomes
T1 sequence (P51639 1-887): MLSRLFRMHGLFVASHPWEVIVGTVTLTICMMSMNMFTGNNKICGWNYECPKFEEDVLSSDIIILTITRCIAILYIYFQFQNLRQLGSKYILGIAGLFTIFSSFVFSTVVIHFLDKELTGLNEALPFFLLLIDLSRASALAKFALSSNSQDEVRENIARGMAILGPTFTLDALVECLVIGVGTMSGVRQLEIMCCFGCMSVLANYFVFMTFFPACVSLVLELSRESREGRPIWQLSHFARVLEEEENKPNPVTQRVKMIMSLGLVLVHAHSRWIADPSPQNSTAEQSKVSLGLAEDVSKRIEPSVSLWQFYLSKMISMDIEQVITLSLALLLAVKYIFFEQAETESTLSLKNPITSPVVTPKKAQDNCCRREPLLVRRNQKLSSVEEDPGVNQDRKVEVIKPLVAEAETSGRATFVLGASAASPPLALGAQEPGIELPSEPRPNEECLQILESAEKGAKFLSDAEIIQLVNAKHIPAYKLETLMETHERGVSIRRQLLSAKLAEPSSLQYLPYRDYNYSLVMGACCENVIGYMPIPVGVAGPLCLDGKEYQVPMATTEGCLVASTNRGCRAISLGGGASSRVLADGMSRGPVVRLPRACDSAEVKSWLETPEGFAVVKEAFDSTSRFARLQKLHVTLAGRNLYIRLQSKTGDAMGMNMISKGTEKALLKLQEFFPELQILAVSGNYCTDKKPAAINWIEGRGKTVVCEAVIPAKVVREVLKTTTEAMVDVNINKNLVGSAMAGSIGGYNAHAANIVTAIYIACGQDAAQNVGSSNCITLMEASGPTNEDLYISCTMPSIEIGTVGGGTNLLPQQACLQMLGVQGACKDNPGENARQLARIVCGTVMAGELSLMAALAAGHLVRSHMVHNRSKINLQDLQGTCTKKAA
Experimental: Rat liver microsomes (HMG-CoA reductase) that may be commercially available or prepared with reference to the following method: take out a male rat liver, after washing the male rat liver with a KESD buffer solution, perform 1200 g centrifugation for 15 minutes, take the supernatant, after performing 105000 g centrifugation again for 90 minutes twice, collect centrifugation sediments, add 8.3% glycerol to the centrifugation sediments, heating for 1 hour with a 37° C. warm bath, purify coarse rat liver microsomes with saturated ammonium sulfate, and collect 35-50% of the purified part. The obtained purified part may be stored in a refrigerator at −80° C.
Dissolve 5.0 mg of the compound with Structural Formula (II) prepared in the first embodiment, Compound 4 or Compound 5, and 2.0 mg of lovastatin with 1 mL of a 75% ethanol solution, respectively;
the total volume of measurement system is 250 μL and the concentrations of the constituents are: potassium chloride 200 mM, potassium dihydrogen phosphate 160 mM, ethylenediaminetetraacetic acid 4 mM and dithiothreitol 10 mM; the concentrations of two substrates NADPH and HMG-CoA are respectively 200 μM and 50 μM, pH6.8, enzyme 30 μL.
Add an ethanol solution with 5 μL of the compound prepared by the first embodiment or an ethanol solution of Compound 4 or an ethanol solution of Compound 5 to a test group, add 5 μL of a lovastatin ethanol solution to a positive control group; add 5 μL of 75% ethanol to a blank control group; detect dynamic change of OD340 on a Versamax microplate reader at 37° C., and evaluate the HMG-CoA reductase activity level by detecting the decreasing speed (represented by a slope value) of OD340 within 5 minutes to further evaluate the enzyme inhibitory activity level, the result is as shown in Table 1.

[2] = system: mouse hepatoma cell line H22; assay: In-vitro anti-hepatoma activity, MTT cell growth inhibition, H22; assay type: cell-based; conditions: mouse hepatoma cell line H22, 72 hours, read-out: half maximal inhibitory concentration (IC50) value
Experimental: (§1) Inoculatecancer cells in the logarithmic phase in each well of a 96-well culture plate (2×10^4 cells/well); add the drugs until the final concentrations of the drugs are 500, 250, 125, 62.5, 31.25, 15.625 and 7.8125 μg/mL, after culturing the cancer cells for 72 hours in a cell incubator with a CO2 concentration of 5%, add 10 μL of MTT to each well, incubate the cancer cells at 37° C. in darkness for 4 hours, remove the culture solution, add 150 μL of Dimethyl Sulfoxide (DMSO) or acidified isopropyl alcohol, after oscillating for 5 minutes, measure the Optical Density (OD) value at a wavelength of 570 nm; repeat the steps above for three times; set a blank control group; the cell lines use the same culture medium, which is a RPMI1640 culture medium containing 10% of FBS and 1% of double-antibody (penicillin and streptomycin).
(§2) 3. Calculation Formula of Cell Viability Cell viability=(experimental group OD value/control group OD value)×100%.
FIG. 9 is a curve of inhibitory effect of a compound with Structural Formula (II) prepared in the first embodiment on cell growth of mouse hepatoma cell line H22. […]

[3] = system: mouse hepatoma cell line HepG2; assay: In-vitro anti-hepatoma activity, MTT cell growth inhibition, HepG2; assay type: cell-based; conditions: mouse hepatoma cell line HepG2, 72 hours
Experimental: as §1, §2
FIG. 10 is curve of inhibitory effect of a compound with Structural Formula (II) prepared in the first embodiment on cell growth of […] hepatoma cell line HepG2. […]

[4] = system: mouse sarcoma cell line S180; assay: In-vitro anti-cancer activity, MTT cell growth inhibition, S180; assay type: cell-based; conditions: S-180, mouse sarcoma cell line S180, 72 hours
Experimental: as §1, §2
FIG. 11 is a curve of inhibitory effect of a compound with Structural Formula (II) prepared in the first embodiment on cell growth of mouse sarcoma cell line S180.

[5] = system: mouse lymphoma cells YAC-1; assay: In-vitro anti-lymphoma activity, MTT cell growth inhibition, YAC-1; assay type: cell-based; conditions: mouse lymphoma cells YAC-1, 72 hours
Experimental: as §1, §2
FIG. 12 is a curve of inhibitory effect of a compound with Structural Formula (II) prepared in the first embodiment on cell growth of mouse lymphoma cells YAC-1.

[6] = system: human mononuclear lymphoma cells THP1; assay: In-vitro anti-lymphoma activity, MTT cell growth inhibition, THP1; assay type: cell-based; conditions: THP-1, human mononuclear lymphoma cells THP1, 72 hours
Experimental: as §1, §2
FIG. 13 is a curve of inhibitory effect of a compound with Structural Formula (II) prepared in the first embodiment on cell growth of human mononuclear lymphoma cells THP1. […]

[7] = system: human tissue lymphoma cells U937; assay: In-vitro anti-lymphoma activity, MTT cell growth inhibition, U937; assay type: cell-based; conditions: U-937, human tissue lymphoma cells U937, 72 hours
Experimental: as §1, §2

[8] = final concentration in the system 40 μg/mL
[9] = final concentration in the system 100 μg/mL

Slope [1, 8]	Inhibitory rate (%) [1, 8]	SMILES	Slope [1, 9]	Inhibitory rate (%) [1, 9]	IC50 [2]	IC50 [3]	IC50 [4]	IC50 [5]	IC50 [6]	IC50 [7]
9.0	42.3%	CC[C@H](C)C(=O)O[C@H]1C[C@@H](C)C=C2C=C[C@H](C)[C@H](CC[C@@H]3C[C@@H](O)CC(=O)O3)[C@H]21 [Lovastatin, lovastatin, reference compound]	–	–	–	–	–	–	–	–
–	–	C[C@@H](C(O)C1OC2C[C@@H]3[C@](C)(CC[C@H]4[C@@]35C=CC3(CC(O)CC[C@]43C)OO5)[C@H]2[C@@]1(C)O)C(C)(C)O (stereo partly shown) [Compound with Structural Formula (II), 5,8-epidioxy-16,22-epoxy-ergosta-6-en-3,20,23,25-tetrol]	10.7	31.4%	~200 µg/mL	~400 µg/mL	~460 µg/mL	~350 µg/mL	~400 µg/mL	~320 µg/mL
